IC50 data for eight compounds are collected here from patent US20090298820A1, “3-SUBSTITUTED-1H-PYRROLO[2,3-B]PYRIDINE AND 3-SUBSTITUTED-1H-PYRROLO[3,2-B]PYRIDINE COMPOUNDS, THEIR USE AS MTOR KINASE AND PI3 KINASE INHIBITORS, AND THEIR SYNTHESES” (Wyeth, priority 2008, published 2009).

Common to all, as to assay type: biochemical
One experiment deals with PI3Kα (Homo sapiens, UniProt P42336). In words: PI3K-alpha fluorescence polarization assay. To be noted: read-out: PI3Kα Median IC50. A general note: In fluorescence polarisation assays a small probe gives low polarisation when free and higher when bound to something large.
Chain of PI3Kα (P42336 whole entry, species assumed): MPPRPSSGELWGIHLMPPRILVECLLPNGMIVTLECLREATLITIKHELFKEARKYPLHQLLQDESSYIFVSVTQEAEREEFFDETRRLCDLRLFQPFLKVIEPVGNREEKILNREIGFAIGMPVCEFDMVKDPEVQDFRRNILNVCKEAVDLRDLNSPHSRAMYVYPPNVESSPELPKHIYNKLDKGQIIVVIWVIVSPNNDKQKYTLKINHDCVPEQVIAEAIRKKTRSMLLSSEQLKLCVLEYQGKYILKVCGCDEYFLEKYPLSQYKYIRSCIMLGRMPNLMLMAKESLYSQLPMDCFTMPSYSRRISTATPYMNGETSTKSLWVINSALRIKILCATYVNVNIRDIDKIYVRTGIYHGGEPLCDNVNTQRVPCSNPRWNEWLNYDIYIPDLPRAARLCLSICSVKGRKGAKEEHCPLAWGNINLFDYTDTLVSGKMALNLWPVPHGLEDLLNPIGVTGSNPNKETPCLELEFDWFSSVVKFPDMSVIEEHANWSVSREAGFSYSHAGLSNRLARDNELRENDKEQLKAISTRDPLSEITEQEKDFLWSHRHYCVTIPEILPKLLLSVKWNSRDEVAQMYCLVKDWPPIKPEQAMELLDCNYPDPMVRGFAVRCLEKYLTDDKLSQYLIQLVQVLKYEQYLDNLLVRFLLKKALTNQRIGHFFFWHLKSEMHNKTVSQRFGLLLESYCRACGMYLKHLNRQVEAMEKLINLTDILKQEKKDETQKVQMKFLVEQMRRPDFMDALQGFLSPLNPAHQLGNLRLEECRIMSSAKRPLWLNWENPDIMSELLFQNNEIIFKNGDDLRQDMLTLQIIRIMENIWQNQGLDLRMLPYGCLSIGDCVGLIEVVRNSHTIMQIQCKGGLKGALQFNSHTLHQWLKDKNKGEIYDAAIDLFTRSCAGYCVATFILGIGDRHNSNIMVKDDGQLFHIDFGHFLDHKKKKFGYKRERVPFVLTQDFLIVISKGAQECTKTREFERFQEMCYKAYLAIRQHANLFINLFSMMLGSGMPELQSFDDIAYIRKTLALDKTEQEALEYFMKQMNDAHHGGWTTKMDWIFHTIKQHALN
Chain of PI3Kα (P27986 whole entry partner, species assumed): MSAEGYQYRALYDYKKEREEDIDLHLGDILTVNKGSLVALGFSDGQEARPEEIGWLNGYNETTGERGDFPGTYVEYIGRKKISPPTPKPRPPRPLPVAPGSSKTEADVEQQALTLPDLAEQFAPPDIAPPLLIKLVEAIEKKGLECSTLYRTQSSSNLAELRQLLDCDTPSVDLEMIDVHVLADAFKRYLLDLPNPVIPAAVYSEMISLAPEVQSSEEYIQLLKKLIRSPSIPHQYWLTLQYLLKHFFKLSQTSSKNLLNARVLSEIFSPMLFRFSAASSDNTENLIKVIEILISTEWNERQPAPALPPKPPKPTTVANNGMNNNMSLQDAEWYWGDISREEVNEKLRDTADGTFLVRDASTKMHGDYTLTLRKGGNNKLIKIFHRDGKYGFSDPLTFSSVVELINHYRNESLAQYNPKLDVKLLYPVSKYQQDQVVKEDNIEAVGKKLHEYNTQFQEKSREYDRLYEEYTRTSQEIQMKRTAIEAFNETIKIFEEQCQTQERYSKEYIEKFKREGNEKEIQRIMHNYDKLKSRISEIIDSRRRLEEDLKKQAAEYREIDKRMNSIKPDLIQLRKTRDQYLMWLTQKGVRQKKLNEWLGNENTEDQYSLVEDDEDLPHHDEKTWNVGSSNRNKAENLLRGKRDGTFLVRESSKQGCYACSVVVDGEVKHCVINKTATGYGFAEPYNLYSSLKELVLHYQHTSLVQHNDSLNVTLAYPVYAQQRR
The target in the next experiment is PI3Kγ (Homo sapiens, UniProt P48736). In words: PI3K-gamma fluorescence polarization assay. The following applies: read-out: PI3Kγ Median IC50.
Chain of PI3Kγ (P48736 whole entry, species assumed): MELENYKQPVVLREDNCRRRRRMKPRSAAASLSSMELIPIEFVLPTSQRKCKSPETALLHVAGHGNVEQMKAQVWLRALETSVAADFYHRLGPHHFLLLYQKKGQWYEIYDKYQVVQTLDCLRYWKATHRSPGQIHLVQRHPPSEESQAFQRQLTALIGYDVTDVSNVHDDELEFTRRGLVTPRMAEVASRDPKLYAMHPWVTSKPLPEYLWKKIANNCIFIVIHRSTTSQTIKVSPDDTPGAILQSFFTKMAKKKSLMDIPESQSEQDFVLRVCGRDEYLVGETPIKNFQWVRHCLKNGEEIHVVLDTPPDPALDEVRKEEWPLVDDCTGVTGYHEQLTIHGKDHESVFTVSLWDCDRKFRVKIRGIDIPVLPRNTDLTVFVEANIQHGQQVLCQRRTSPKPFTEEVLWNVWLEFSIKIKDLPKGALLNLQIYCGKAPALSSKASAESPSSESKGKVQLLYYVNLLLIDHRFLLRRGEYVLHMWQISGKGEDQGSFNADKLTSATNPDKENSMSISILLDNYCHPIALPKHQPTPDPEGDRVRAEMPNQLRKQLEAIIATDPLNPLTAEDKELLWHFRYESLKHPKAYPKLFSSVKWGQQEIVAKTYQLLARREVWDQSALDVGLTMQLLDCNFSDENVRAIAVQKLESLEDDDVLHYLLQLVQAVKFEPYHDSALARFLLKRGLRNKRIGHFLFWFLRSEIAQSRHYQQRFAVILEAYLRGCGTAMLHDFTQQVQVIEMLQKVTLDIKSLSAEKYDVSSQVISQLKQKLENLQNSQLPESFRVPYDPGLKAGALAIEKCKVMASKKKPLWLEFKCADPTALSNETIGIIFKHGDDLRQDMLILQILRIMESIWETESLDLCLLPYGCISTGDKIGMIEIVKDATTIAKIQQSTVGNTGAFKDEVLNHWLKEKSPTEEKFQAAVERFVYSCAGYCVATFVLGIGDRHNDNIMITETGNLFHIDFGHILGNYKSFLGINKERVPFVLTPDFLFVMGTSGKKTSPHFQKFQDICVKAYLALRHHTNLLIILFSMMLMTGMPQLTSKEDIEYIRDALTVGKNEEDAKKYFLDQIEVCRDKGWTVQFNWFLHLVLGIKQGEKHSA
The next experiment deals with mTOR (Homo sapiens, UniProt P42345). In words: mTOR enzyme assay (DELFIA format, His6-S6K substrate). The following applies: read-out: mTOR Kinase Median IC50.

Each structure is given as a SMILES string.

For orientation: IC50 means the midpoint of a concentration-inhibition curve. On to `CCn1cc(/C=C2\Oc3ccc(NC(=O)Nc4cccnc4)cc3C2=O)c2c(-c3ccc(C(=O)N4CCN(CCO)CC4)cc3)ccnc21` [Compound 177, 1-[(2Z)-2-{[1-ethyl-4-(4-{[4-(2-hydroxyethyl)piperazin-1-yl]carbonyl}phenyl)-1H-pyrrolo[2,3-b]pyridin-3-yl]methylidene}-3-oxo-2,3-dihydro-1-benzofuran-5-yl]-3-pyridin-3-ylurea], for which the 50% inhibitory concentration (IC50) at PI3Kα came to 2690 nM; on PI3Kγ it was 2360 nM; on mTOR, 66 nM.
For the compound `Cn1cc(/C=C2\Oc3ccc(NC(=O)Nc4cccnc4)cc3C2=O)c2c(-c3ccc(C(=O)N4CCOCC4)cc3)ccnc21` [Compound 178, 1-[(2Z)-2-({1-methyl-4-[4-(morpholin-4-ylcarbonyl)phenyl]-1H-pyrrolo[2,3-b]pyridin-3-yl}methylidene)-3-oxo-2,3-dihydro-1-benzofuran-5-yl]-3-pyridin-3-ylurea], the IC50 was 1120 nM on PI3Kα, 652 nM at PI3Kγ and 54.5 nM on mTOR.
With `CNC(=O)Nc1ccc2c(c1)C(=O)/C(=C/c1cn(C)c3nccc(-c4ccc(C(=O)N5CCOCC5)cc4)c13)O2` [Compound 179, 1-methyl-3-[(2Z)-2-({1-methyl-4-[4-(morpholin-4-ylcarbonyl)phenyl]-1H-pyrrolo[2,3-b]pyridin-3-yl}methylidene)-3-oxo-2,3-dihydro-1-benzofuran-5-yl]urea], the IC50 stood at 249 nM at PI3Kα, 578 nM on PI3Kγ and 15 nM at mTOR.
For `Cn1cc(/C=C2\Oc3cccc(O)c3C2=O)c2c(-c3ccc(S(=O)(=O)N4CCCCC4)cc3)ccnc21` [Compound 181, (2Z)-4-hydroxy-2-({1-methyl-4-[4-(piperidin-1-ylsulfonyl)phenyl]-1H-pyrrolo[2,3-b]pyridin-3-yl}methylidene)-1-benzofuran-3(2H)-one], the IC50 at PI3Kα stood at 123 nM; on PI3Kγ, 1210 nM; at mTOR, 58 nM.
Turning to `Cn1cc(/C=C2\Oc3ccc(NC(=O)Nc4cccnc4)cc3C2=O)c2c(-c3ccccc3)ccnc21` [Compound 183, 1-{(2Z)-2-[(1-methyl-4-phenyl-1H-pyrrolo[2,3-b]pyridin-3-yl)methylidene]-3-oxo-2,3-dihydro-1-benzofuran-5-yl}-3-pyridin-3-ylurea], the IC50 at PI3Kα worked out at 367 nM; on PI3Kγ, 479 nM; on mTOR, 755 nM.
The corresponding values for `CN1CCN(c2ccnc3c2c(/C=C2\Oc4ccc(NC(=O)Nc5cccnc5)cc4C2=O)cn3C)CC1` [Compound 184, 1-[(2Z)-2-{[1-methyl-4-(4-methylpiperazin-1-yl)-1H-pyrrolo[2,3-b]pyridin-3-yl]methylidene}-3-oxo-2,3-dihydro-1-benzofuran-5-yl]-3-pyridin-3-ylurea] are 632 nM, 484 nM and 83 nM.
Turning to `Cn1cc(/C=C2\Oc3ccc(NC(=O)Nc4cccnc4)cc3C2=O)c2c(N3CCOCC3)ccnc21` [Compound 185, 1-{(2Z)-2-[(1-methyl-4-morpholin-4-yl-1H-pyrrolo[2,3-b]pyridin-3-yl)methylidene]-3-oxo-2,3-dihydro-1-benzofuran-5-yl}-3-pyridin-3-ylurea], the IC50 at PI3Kα is 275 nM; at PI3Kγ it was 348 nM; at mTOR it was 71 nM.
Consider `CCn1cc(/C=C2\Oc3cccc(O)c3C2=O)c2c(-c3ccc(C(=O)N4CCN(CCO)CC4)cc3)ccnc21` [Compound 186, (2Z)-2-{[1-ethyl-4-(4-{[4-(2-hydroxyethyl)piperazin-1-yl]carbonyl}phenyl)-1H-pyrrolo[2,3-b]pyridin-3-yl]methylidene}-4-hydroxy-1-benzofuran-3(2H)-one], for which the concentration for half-maximal inhibition (IC50) at PI3Kα came out at 445 nM; on PI3Kγ, 550 nM; at mTOR, 4.6 nM.
